This is an account of results in ChEMBL document CHEMBL1139115, “Thyroid receptor ligands. Part 7: Indirect antagonists of the thyroid hormone receptor with improved affinity” (Bioorg Med Chem Lett, 2007).

Structures are written as SMILES.

Broadly, the IC50 is the concentration needed to halve the response being measured.

Test [1] has as its target T1, Thyroid hormone receptor alpha (Homo sapiens, UniProt P10827).
T1 sequence (P10827 whole entry): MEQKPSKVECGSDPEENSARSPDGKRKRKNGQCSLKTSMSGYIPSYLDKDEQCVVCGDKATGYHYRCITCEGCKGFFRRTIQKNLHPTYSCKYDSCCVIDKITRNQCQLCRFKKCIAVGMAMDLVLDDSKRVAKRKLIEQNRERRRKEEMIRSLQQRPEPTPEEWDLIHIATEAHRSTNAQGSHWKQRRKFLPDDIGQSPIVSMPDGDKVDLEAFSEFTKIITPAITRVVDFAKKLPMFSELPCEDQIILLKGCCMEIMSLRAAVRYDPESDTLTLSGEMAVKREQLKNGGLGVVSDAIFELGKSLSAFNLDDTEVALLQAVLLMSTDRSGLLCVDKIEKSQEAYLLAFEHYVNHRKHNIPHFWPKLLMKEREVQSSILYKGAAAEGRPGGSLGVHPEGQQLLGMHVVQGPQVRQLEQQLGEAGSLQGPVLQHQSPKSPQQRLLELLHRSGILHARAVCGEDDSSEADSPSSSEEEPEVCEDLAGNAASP
Nature of the test: Displacement of L-T3 from human TR-alpha-1 expressed in CHOK1 cells assessed as TRAF-alpha-1-driven gene transactivation by alkaline phosphatase reporter gene assay. The class given is cell-based, CHO-K1. Background: A reporter such as luciferase makes a cellular process visible.

Test [2] addresses T2, Estrogen receptor (Homo sapiens, UniProt P03372).
T2 sequence (P03372 whole entry): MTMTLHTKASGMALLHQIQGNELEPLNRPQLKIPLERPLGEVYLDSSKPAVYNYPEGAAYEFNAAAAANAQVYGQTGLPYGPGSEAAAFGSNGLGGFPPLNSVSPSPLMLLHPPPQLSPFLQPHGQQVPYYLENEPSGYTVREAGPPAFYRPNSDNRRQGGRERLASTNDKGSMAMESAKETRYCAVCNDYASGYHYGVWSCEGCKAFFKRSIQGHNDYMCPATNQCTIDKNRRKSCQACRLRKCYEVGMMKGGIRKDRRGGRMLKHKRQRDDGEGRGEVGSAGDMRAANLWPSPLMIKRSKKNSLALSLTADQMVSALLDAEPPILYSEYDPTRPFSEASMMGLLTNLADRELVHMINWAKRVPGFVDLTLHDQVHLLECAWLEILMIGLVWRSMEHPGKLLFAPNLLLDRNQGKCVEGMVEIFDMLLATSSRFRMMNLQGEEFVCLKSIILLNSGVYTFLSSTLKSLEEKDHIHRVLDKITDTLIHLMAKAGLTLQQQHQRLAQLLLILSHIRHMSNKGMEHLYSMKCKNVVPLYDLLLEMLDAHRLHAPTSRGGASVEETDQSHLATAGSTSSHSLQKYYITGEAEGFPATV
In words: Binding affinity at ERalpha.

Consider `O=C(O)CCc1cc(Br)c(OCc2cccc(Br)c2)c(Br)c1`, for which the IC50 was 0.09 µM in test [1] and 29 µM in test [2].
